Active and inactive are the calls of the source. No rule for the calls is given here.

For the data set, the system named is CCRIS mutagenicity, Ames/micronucleus/aberration tests. Briefly: CCRIS mutagenicity studies.
Where [1] appears, read: Test System: AMES SALMONELLA TYPHIMURIUM, Strain/Indicator: TA98, Metabolic Activation: NONE, Method: STANDARD PLATE.
Where [2] appears, read: Test System: AMES SALMONELLA TYPHIMURIUM, Strain/Indicator: TA100, Metabolic Activation: NONE, Method: STANDARD PLATE.
Setting [3] is: Test System: AMES SALMONELLA TYPHIMURIUM, Strain/Indicator: TA100, Metabolic Activation: RAT, LIVER, S-9, AROCLOR 1254, Method: STANDARD PLATE.
[4] abbreviates: Test System: MOUSE LYMPHOMA, Strain/Indicator: L5178Y (TK+/TK-), Metabolic Activation: NONE, Method: SUSPENSION/PLATE.

For the compound `CC(C)[C@@](O)(C(=O)OCC1=CCN2CC[C@@H](O)[C@@H]12)[C@H](C)O`, the mutagenic call was “inactive; negative” (Test System: AMES SALMONELLA TYPHIMURIUM, Strain/Indicator: TA100, Metabolic Activation: HAMSTER, LIVER, S-9, PCB, Method: PREINCUBATION) and “inactive; negative” (Test System: AMES SALMONELLA TYPHIMURIUM, Strain/Indicator: TA100, Metabolic Activation: RAT, LIVER, S-9, PCB, Method: PREINCUBATION).

Consider `Cc1cnc2ccc3c(nc(NO)n3C)c2n1`, for which, under setting [1], the mutagenic call was “active; positive”.

Regarding `CC1CO1` (configuration not stated), the mutagenic call is, setting by setting: (End Point: IN VITRO CHROMOSOMAL ABERRATIONS, Test System: CHL CELLS, Metabolic Activation: NONE) “active; positive (structural changes)”; (End Point: IN VITRO CHROMOSOMAL ABERRATIONS, Test System: CHL CELLS, Metabolic Activation: RAT, LIVER, S-9, SODIUM PHENOBARBITAL AND 5,6-BENZOFLAVONE) “active; positive (structural changes)”; (End Point: IN VITRO CHROMOSOMAL ABERRATIONS, Test System: CHO CELLS, Metabolic Activation: NONE) “active; positive; weak response”; (Test System: AMES SALMONELLA TYPHIMURIUM, Strain/Indicator: TA100, Metabolic Activation: HAMSTER, LIVER, S-9, AROCLOR 1254 (10%), Method: PREINCUBATION) “active; positive”; (Test System: AMES SALMONELLA TYPHIMURIUM, Strain/Indicator: TA100, Metabolic Activation: NONE, Method: FLASK VAPORIZATION) “active; positive”; (Test System: AMES SALMONELLA TYPHIMURIUM, Strain/Indicator: TA100, Metabolic Activation: NONE, Method: PREINCUBATION) “active; positive”. In addition, the mutagenic call under setting [2] was “active; positive”; the mutagenic call (Test System: AMES SALMONELLA TYPHIMURIUM, Strain/Indicator: TA100, Metabolic Activation: NONE, Method: SUSPENSION/PLATE) is “active; positive”; the mutagenic call (Test System: AMES SALMONELLA TYPHIMURIUM, Strain/Indicator: TA100, Metabolic Activation: RAT, LIVER, S-9, AROCLOR 1254 (10%), Method: PREINCUBATION) was “active; positive”; the mutagenic call (Test System: AMES SALMONELLA TYPHIMURIUM, Strain/Indicator: TA100, Metabolic Activation: RAT, LIVER, S-9, AROCLOR 1254, Method: FLASK VAPORIZATION) was “active; positive”; the mutagenic call under setting [3] was “active; positive”; the mutagenic call (Test System: AMES SALMONELLA TYPHIMURIUM, Strain/Indicator: TA1535, Metabolic Activation: HAMSTER, LIVER, S-9, AROCLOR 1254 (10%), Method: PREINCUBATION) is “active; positive”. Also, the mutagenic call runs as follows: (Test System: AMES SALMONELLA TYPHIMURIUM, Strain/Indicator: TA1535, Metabolic Activation: NONE, Method: FLASK VAPORIZATION) “active; positive”; (Test System: AMES SALMONELLA TYPHIMURIUM, Strain/Indicator: TA1535, Metabolic Activation: NONE, Method: PREINCUBATION) “active; positive”; (Test System: AMES SALMONELLA TYPHIMURIUM, Strain/Indicator: TA1535, Metabolic Activation: NONE, Method: STANDARD PLATE) “active; positive”; (Test System: AMES SALMONELLA TYPHIMURIUM, Strain/Indicator: TA1535, Metabolic Activation: NONE, Method: SUSPENSION/PLATE) “active; positive”; (Test System: AMES SALMONELLA TYPHIMURIUM, Strain/Indicator: TA1535, Metabolic Activation: RAT, LIVER, S-9, AROCLOR 1254 (10%), Method: PREINCUBATION) “active; positive”; (Test System: AMES SALMONELLA TYPHIMURIUM, Strain/Indicator: TA1535, Metabolic Activation: RAT, LIVER, S-9, AROCLOR 1254, Method: FLASK VAPORIZATION) “active; positive”. The mutagenic call runs as follows: (Test System: AMES SALMONELLA TYPHIMURIUM, Strain/Indicator: TA1535, Metabolic Activation: RAT, LIVER, S-9, AROCLOR 1254, Method: STANDARD PLATE) “active; positive”; (Test System: Ames Salmonella typhimurium, Strain/Indicator: YG7108, Metabolic Activation: None, Method: Standard plate) “active; positive”; under setting [4], “active; positive”.

Turning to `CCCOc1cc(N=Nc2ccc(N(CC)CC)cc2)ccc1N=Nc1c(S(=O)(=O)O)cc2ccc(N)cc2c1O`, the mutagenic call is “active; positive” (Test System: AMES SALMONELLA TYPHIMURIUM, Strain/Indicator: TA98, Metabolic Activation: RAT, LIVER, S-9, AROCLOR 1254, Method: STANDARD PLATE); “inactive; negative” under setting [2]; “inactive; negative” under setting [3]; “inactive; negative” (Test System: AMES SALMONELLA TYPHIMURIUM, Strain/Indicator: TA1538, Metabolic Activation: NONE, Method: STANDARD PLATE); “active; positive” (Test System: AMES SALMONELLA TYPHIMURIUM, Strain/Indicator: TA1538, Metabolic Activation: RAT, LIVER, S-9, AROCLOR 1254, Method: STANDARD PLATE).

Turning to `ClC/C=C/CCl`, the mutagenic call by setting is: (Test System: AMES SALMONELLA TYPHIMURIUM, Strain/Indicator: TA98, Metabolic Activation: HAMSTER, LIVER, S-9, AROCLOR 1254 (10%), Method: STANDARD PLATE) “active; positive”; under setting [1], “active; positive”; (Test System: AMES SALMONELLA TYPHIMURIUM, Strain/Indicator: TA98, Metabolic Activation: RAT, LIVER, S-9, AROCLOR 1254 (10%), Method: STANDARD PLATE) “active; positive”; (Test System: AMES SALMONELLA TYPHIMURIUM, Strain/Indicator: TA100, Metabolic Activation: HAMSTER, LIVER, S-9, AROCLOR 1254 (10%), Method: STANDARD PLATE) “active; positive”; under setting [2], “active; positive”; (Test System: AMES SALMONELLA TYPHIMURIUM, Strain/Indicator: TA100, Metabolic Activation: RAT, LIVER, S-9, AROCLOR 1254 (10%), Method: STANDARD PLATE) “active; positive”. Further, the mutagenic call is, setting by setting: under setting [4], “active; positive. reevaluation of results: inconclusive”; (Test System: MOUSE LYMPHOMA, Strain/Indicator: L5178Y (TK+/TK-), Metabolic Activation: RAT, LIVER, S-9, AROCLOR 1254, Method: SUSPENSION/PLATE) “active; positive. reevaluation of results: positive”.

As for `CCOC(=O)CC(=O)OCC`, the mutagenic call runs as follows: (Test System: Ames Salmonella typhimurium, Strain/Indicator: TA98, Metabolic Activation: None, Method: Preincubation) “inactive; negative”; (Test System: Ames Salmonella typhimurium, Strain/Indicator: TA98, Metabolic Activation: Rat, Liver, S-9, Phenobarbital and 5,6-benzoflavone, Method: Preincubation) “inactive; negative”; (Test System: Ames Salmonella typhimurium, Strain/Indicator: TA100, Metabolic Activation: None, Method: Preincubation) “inactive; negative”; (Test System: Ames Salmonella typhimurium, Strain/Indicator: TA100, Metabolic Activation: Rat, Liver, S-9, Phenobarbital and 5,6-benzoflavone, Method: Preincubation) “inactive; negative”; (Test System: Ames Salmonella typhimurium, Strain/Indicator: TA1535, Metabolic Activation: None, Method: Preincubation) “inactive; negative”; (Test System: Ames Salmonella typhimurium, Strain/Indicator: TA1535, Metabolic Activation: Rat, Liver, S-9, Phenobarbital and 5,6-benzoflavone, Method: Preincubation) “inactive; negative”. The mutagenic call is “inactive; negative” (Test System: Ames Salmonella typhimurium, Strain/Indicator: TA1537, Metabolic Activation: None, Method: Preincubation); “inactive; negative” (Test System: Ames Salmonella typhimurium, Strain/Indicator: TA1537, Metabolic Activation: Rat, Liver, S-9, Phenobarbital and 5,6-benzoflavone, Method: Preincubation); “inactive; negative” (Test System: E. coli, Strain/Indicator: WP2uvrA/pKM101, Metabolic Activation: None, Method: Preincubation); “inactive; negative” (Test System: E. coli, Strain/Indicator: WP2uvrA/pKM101, Metabolic Activation: Rat, Liver, S-9, Phenobarbital and 5,6-benzoflavone, Method: Preincubation).

The values are drawn from PubChem BioAssay AID1259407 (Chemical Carcinogenesis Research Information System (CCRIS), 2018).
